pIC50: −log10 of the molar value.
Key:
[1] = biological target: T1, Tyrosine-protein phosphatase non-receptor type 1 (Homo sapiens, UniProt P18031); experiment: Enzyme Assays
T1 sequence (P18031 whole entry): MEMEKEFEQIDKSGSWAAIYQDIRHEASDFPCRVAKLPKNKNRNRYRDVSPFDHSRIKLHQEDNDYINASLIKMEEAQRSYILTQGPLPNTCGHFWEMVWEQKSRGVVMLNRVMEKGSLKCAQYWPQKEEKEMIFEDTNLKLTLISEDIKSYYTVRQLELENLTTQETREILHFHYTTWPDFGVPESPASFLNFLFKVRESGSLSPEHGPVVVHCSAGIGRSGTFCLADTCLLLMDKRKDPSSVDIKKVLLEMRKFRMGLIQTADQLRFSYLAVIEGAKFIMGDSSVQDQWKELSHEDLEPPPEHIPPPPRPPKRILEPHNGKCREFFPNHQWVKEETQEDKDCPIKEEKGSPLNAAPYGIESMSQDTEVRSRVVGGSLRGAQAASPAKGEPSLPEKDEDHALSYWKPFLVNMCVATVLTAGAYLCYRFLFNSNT
Experimental: (§1) The in vitro enzyme inhibitory activity was evaluated by using the pNPP assay. Para-nitrophenylphosphate (pNPP) and test compounds were added to assay buffer, and reactions were initiated by the addition of PTP1B or TCPTP (10-100 nM).

[2] = biological target: T2, Tyrosine-protein phosphatase non-receptor type 2 (Homo sapiens, UniProt P17706); experiment: Enzyme Assays
T2 sequence (P17706 whole entry): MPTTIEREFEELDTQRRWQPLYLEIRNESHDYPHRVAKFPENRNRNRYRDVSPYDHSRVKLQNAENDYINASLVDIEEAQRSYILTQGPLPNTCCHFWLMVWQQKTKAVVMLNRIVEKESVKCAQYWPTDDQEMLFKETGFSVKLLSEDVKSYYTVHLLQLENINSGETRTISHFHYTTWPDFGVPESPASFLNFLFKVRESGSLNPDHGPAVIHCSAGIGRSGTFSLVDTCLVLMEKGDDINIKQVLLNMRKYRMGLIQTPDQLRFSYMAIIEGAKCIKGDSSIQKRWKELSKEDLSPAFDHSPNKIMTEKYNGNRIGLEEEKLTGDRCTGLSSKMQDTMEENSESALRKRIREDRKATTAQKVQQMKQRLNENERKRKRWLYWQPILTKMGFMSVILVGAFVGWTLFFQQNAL
Experimental: as §1

| Compound | pIC50 [1] | pIC50 [2] |
| --- | --- | --- |
| O=C1CC(c2ccc(CC(Cc3ccc4cc(Br)c(C(F)(F)P(=O)(O)O)cc4c3)(C(=O)c3ccccc3)n3nnc4ccccc43)cc2)S(=O)(=O)N1 (stereo not drawn) [({7-[2-(1H-1,2,3-benzotriazol-1-yl)-3-oxo-3-phenyl-2-{[4-(1,1,3-trioxo-1λ⁶,2-thiazolidin-5-yl)phenyl]methyl}propyl]-3-bromonaphthalen-2-yl}difluoromethyl)phosphonic acid (10e)] | 6.03 | – |
| N[S+]([O-])C(F)(F)c1cc2nc(CC(Cc3ccc4cc(Br)c(C(F)(F)P(=O)(O)O)cc4n3)(C(=O)c3ccccc3)n3nnc4ccccc43)ccc2cc1Br (stereo not drawn) [({2-[2-({7-[(aminosulfinyl)difluoromethyl]-6-bromoquinolin-2-yl}methyl)-2-(1H-1,2,3-benzotriazol-1-yl)-3-oxo-3-phenylpropyl]-6-bromoquinolin-7-yl}difluoromethyl)phosphonic acid (10o)] | 8.40 | 7.09 |
| N[S+]([O-])C(F)(F)c1ccc(CC(Cc2ccc3cc(Br)c(C(F)(F)P(=O)(O)O)cc3c2)(C(=O)c2ccccc2)n2nnc3ccccc32)cc1Br (stereo not drawn) [({7-[2-({4-[(aminosulfinyl)difluoromethyl]-3-bromophenyl}methyl)-2-(1H-1,2,3-benzotriazol-1-yl)-3-oxo-3-phenylpropyl]-3-bromonaphthalen-2-yl}difluoromethyl)phosphonic acid (10d)] | 7.72 | 6.72 |
| O=C1CC(c2ccc(CC(Cc3ccc4cc(Br)c(C(F)(F)P(=O)(O)O)cc4c3)(C(=O)c3ccccc3)n3nnc4ccccc43)cc2F)S(=O)(=O)N1 (stereo not drawn) [({7-[2-(1H-1,2,3-benzotriazol-1-yl)-2-{[3-fluoro-4-(1,1,3-trioxo-1λ⁶,2-thiazolidin-5-yl)phenyl]methyl}-3-oxo-3-phenylpropyl]-3-bromonaphthalen-2-yl}difluoromethyl)phosphonic acid (10g)] | 6.04 | – |
| N[S+]([O-])C(F)(F)c1ccc(CC(Cc2ccc3cc(Br)c(C(F)(F)P(=O)(O)O)cc3n2)(C(=O)c2ccccc2)n2nnc3ccccc32)cc1Br (stereo not drawn) [({2-[2-({4-[(aminosulfinyl)difluoromethyl]-3-bromophenyl}methyl)-2-(1H-1,2,3-benzotriazol-1-yl)-3-oxo-3-phenylpropyl]-6-bromoquinolin-7-yl}difluoromethyl)phosphonic acid (10m)] | 7.66 | – |
| Cc1cc(CC(Cc2ccc3cc(Br)c(C(F)(F)P(=O)(O)O)cc3c2)(C(=O)c2ccccc2)n2nnc3ccccc32)ccc1C1CC(=O)NS1(=O)=O (stereo not drawn) [({7-[2-(1H-1,2,3-benzotriazol-1-yl)-2-{[3-methyl-4-(1,1,3-trioxo-1λ⁶,2-thiazolidin-5-yl)phenyl]methyl}-3-oxo-3-phenylpropyl]-3-bromonaphthalen-2-yl}difluoromethyl)phosphonic acid (10f)] | 6.03 | – |
| O=C(c1ccccc1)C(Cc1ccc2cc(Br)c(C(F)(F)P(=O)(O)O)cc2c1)(Cc1ccc2cc(Br)c(C(F)(F)P(=O)(O)O)cc2c1)n1nnc2ccccc21 | 8.30 | 6.24 |
| O=C(c1ccccc1)C(Cc1ccc(C(F)(F)P(=O)(O)O)c(Br)c1)(Cc1ccc2cc(Br)c(C(F)(F)P(=O)(O)O)cc2n1)n1nnc2ccccc21 (stereo not drawn) [({2-[2-(1H-1,2,3-benzotriazol-1-yl)-2-({3-bromo-4-[difluoro(phosphono)methyl]phenyl}methyl)-3-oxo-3-phenylpropyl]-6-bromoquinolin-7-yl}difluoromethyl)phosphonic acid (10l)] | 7.68 | – |
| N[S+]([O-])C(F)(F)c1cc2cc(CC(Cc3ccc4cc(Br)c(C(F)(F)P(=O)(O)O)cc4c3)(C(=O)c3ccccc3)n3nnc4ccccc43)ccc2cc1Br (stereo not drawn) [({7-[2-({7-[(aminosulfinyl)difluoromethyl]-6-bromonaphthalen-2-yl}methyl)-2-(1H-1,2,3-benzotriazol-1-yl)-3-oxo-3-phenylpropyl]-3-bromonaphthalen-2-yl}difluoromethyl)phosphonic acid (10j)] | 8.40 | 6.32 |
| O=C(c1ccccc1)C(Cc1ccc(Br)c(C(F)(F)P(=O)(O)O)c1)(Cc1ccc2cc(Br)c(C(F)(F)P(=O)(O)O)cc2c1)n1nnc2ccccc21 (stereo not drawn) [({7-[2-(1H-1,2,3-benzotriazol-1-yl)-2-({4-bromo-3-[difluoro(phosphono)methyl]phenyl}methyl)-3-oxo-3-phenylpropyl]-3-bromonaphthalen-2-yl}difluoromethyl)phosphonic acid (10c)] | 6.39 | – |
| O=C(c1ccccc1)C(Cc1ccc(C(F)(F)P(=O)(O)O)cc1)(Cc1ccc2cc(Br)c(C(F)(F)P(=O)(O)O)cc2c1)n1nnc2ccccc21 (stereo not drawn) [({7-[2-(1H-1,2,3-benzotriazol-1-yl)-2-({4-[difluoro(phosphono)methyl]phenyl}methyl)-3-oxo-3-phenylpropyl]-3-bromonaphthalen-2-yl}difluoromethyl)phosphonic acid (10a)] | 7.34 | – |
| O=C(c1ccccc1)C(Cc1ccc2cc(Br)c(C(F)(F)P(=O)(O)O)cc2n1)(Cc1ccc2cc(Br)c(C(F)(F)P(=O)(O)O)cc2n1)n1nnc2ccccc21 [({2-[2-(1H-1,2,3-benzotriazol-1-yl)-2-({6-bromo-7-[difluoro(phosphono)methyl]quinolin-2-yl}methyl)-3-oxo-3-phenylpropyl]-6-bromoquinolin-7-yl}difluoromethyl)phosphonic acid (10n)] | 8.30 | 7.00 |
| N[S+]([O-])C(F)(F)c1cc2nc(CC(Cc3ccc4cc(Br)c(C(F)(F)P(=O)(O)O)cc4c3)(C(=O)c3ccccc3)n3nnc4ccccc43)ccc2cc1Br (stereo not drawn) [({7-[2-({7-[(aminosulfinyl)difluoromethyl]-6-bromoquinolin-2-yl}methyl)-2-(1H-1,2,3-benzotriazol-1-yl)-3-oxo-3-phenylpropyl]-3-bromonaphthalen-2-yl}difluoromethyl)phosphonic acid (10k)] | 8.22 | 6.73 |
| O=C(c1ccccc1)C(Cc1ccc2cc(Br)c(C(F)(F)P(=O)(O)O)cc2c1)(Cc1ccc2cc(Br)c(C(F)(F)P(=O)(O)O)cc2n1)n1nnc2ccccc21 (stereo not drawn) [({7-[2-(1H-1,2,3-benzotriazol-1-yl)-2-({6-bromo-7-[difluoro(phosphono)methyl]quinolin-2-yl}methyl)-3-oxo-3-phenylpropyl]-3-bromonaphthalen-2-yl}difluoromethyl)phosphonic acid (10i)] | 8.52 | 7.05 |
| O=C(c1ccccc1)C(Cc1ccc(C(F)(F)P(=O)(O)O)c(Br)c1)(Cc1ccc2cc(Br)c(C(F)(F)P(=O)(O)O)cc2c1)n1nnc2ccccc21 (stereo not drawn) [({7-[2-(1H-1,2,3-benzotriazol-1-yl)-2-({3-bromo-4-[difluoro(phosphono)methyl]phenyl}methyl)-3-oxo-3-phenylpropyl]-3-bromonaphthalen-2-yl}difluoromethyl)phosphonic acid (10b)] | 7.70 | 6.70 |

Reference: BindingDB's records for doi:10.1002/cmdc.201100077 (Zydus Research Centre, 2011)
